Reference: patent publication EP2815749A1, “Solid form of 4-amino-2-(2,6-dioxopiperidine-3-yl)isoindoline-1,3-dione having specified X-ray diffraction pattern” (IP Gesellschaft für Management mbH, priority 2013, dated 2014)
Where a name gives a salt, the structure may show the parent alone. Read-outs that look alike come from different tables or passages of the source.

Columns and labels:
[1] = In vivo pharmacokinetics of Compound (VI) free base and hemisulfate salt capsules; settings: dogs; for bioavailability: oral capsule, 150 mg of Compound (VI) (or equivalent), after pretreatment with famotidine (40 mg)
Procedure: An aliquot of 0.050 mL of dog EDTA plasma was used for the assay. […] A 450 µï^ portion of the organic layer was removed and evaporated to dryness. The residue was reconstituted in 300 µl, of the reconstitution solution (30% acetonitrile in 10 mM NH40Ac with 0.01% acetic acid). All liquid transfer steps were performed using a Perkin Elmer JANUS Mini® liquid handler except for the addition of the internal standard solution. A 5 µï^ aliquot of the extracted sample was injected to uHPLC-MS/MS system. The uHPLC was performed on a LEAP 4X Ultra uHPLC system with LEAP HTC PAL autosampler. Mobile phase A contained 10 mM NH4OAc and 0.01% acetic acid in ACN/water (10:90), and mobile phase B contained 10 mM NH4OAc and 0.01% acetic acid in ACN/water (90: 10). […] The flow rate was 0.6 mL/min and column temperature was maintained at 60°C condition. Detection was accomplished using an AB Sciex Triple Quad 5500 mass spectrometer in positive ESI with turbo ion spray ionization and using multiple reaction monitoring (MRM) mode. […] Data acquisition and quantification were performed using AB Sciex Analyst® 1.5.1 software.

[2] = Salt screening and crystalline salt characterization of Compound (VI); settings: for Hygroscopicity: ambient temperature and relative humidity conditions, hemisulfate salt
Procedure: The screening examined acid type, acid level (equivalents), and/or type of crystallization solvent. Each plate contained 96 well plates (8 rows of 12 columns per plate). […] The solution (12.5 mL) was transferred to 24 vials. To each vial was added 0.25 M EtOH stock solutions of the following acids:
The content of each vial was transferred to 12 crystallization wells and evaporated to dryness. Upon evaporation, each well was charged with 100 µl of solvent using a robotic liquid handler. The following crystallization solvents were tested: methyl isobutyl ketone (MIBK), ethyl acetate, toluene, THF, acetonitrile, acetone, isopropanol, ethanol, methanol, 1,2-dichloroethylene, isopropanol/water (50:50), and water. Next, the plates were sealed with Teflon septa and subjected to temperature cycling. […] After the heating/cooling cycle, the contents of the wells were characterized by birefringent imaging. Perceived crystalline hits were further characterized by PXRD analysis.

[3] = Water activity studies between crystalline forms; assay type: physicochemical
Procedure: (§1) Other Crystalline Forms of Example 1: Form P22C: prepared by heating Form HI.5-1 ({drug6b}) at 60°C for 2 hours or at 75°C for 5 minutes. […] Form P33 ({drug6c}): Form HI.5-1 ({drug6b}) converted to Form P33 ({drug6c}) between 50°C and 75°C in variable temperature PXRD experiment. […] Form P35: Prepared from slurry of Form HI.5-1 ({drug6b}) in dry MeOH under molecular sieves (7% RH). Converted to Form P33 ({drug6c}) when dried at 60°C. Stability in Water Slurry: An aqueous slurry of Example 1 was prepared and stored at room temperature. […] The hemisulfate salt of Compound (VI) has the surprising advantage of providing a salt that is physically stable and chemically stable compared to other salts of Compound (VI). Further, the hemisulfate salt had the surprising advantage of being provided in a stable crystalline form, Form HI.5-1 ({drug6b}).

[4] = Solid state stability study of Example 1 (hemisulfate salt, Form HI.5-1); assay type: physicochemical
Procedure: Stability Study: The solid state stability of Example lwas tested by exposing samples to various temperature and relative humidity conditions for periods of 1, 2, and 4 weeks. […] Table 4: Solid State Stability of Hemisulfate Salt, Form HI.5-1 ({drug6b}): […]

[5] = Stability in water slurry; assay type: physicochemical; settings: room temperature, after two days
Procedure: as §1

[6] = Moisture sorption isotherm of Example 1; assay type: physicochemical; settings: 25°C
Excerpt: Example 1 has moisture sorption weight gains of 0.8 weight % and 2.8 weight % between 25% and 75% relative humidity and 5% and 95% relative humidity, respectively. […] PXRD Peak Positions (degrees 2Θ±0.1):
The hemisulfate salt of Compound (VI) has the surprising advantage of reducing the variability in the bioavailability of Compound (VI) and/or increasing the bioavailability of Compound (VI) to the patient. Based on these in vitro and in vivo data, it is expected that the hemisulfate will provide a significant advantage of consistency in bioavailability among patients over the free form. […] Single Crystal Data (LVL): Data were collected on a Bruker-Nonius CAD4 serial diffractometer. […] Intensities were measured using Cu Ka radiation (λ = 1.5418 A) at a constant temperature with the Θ-2Θ variable scan technique and were corrected only for Lorentz-polarization factors. […] Indexing and processing of the measured intensity data were carried out with the HKL2000 software package (Otwinowski, Z & Minor, W. (1997) in Macromolecular Crystallography, eds. Carter, W.C. Jr. & Sweet, R.M. (Academic, NY), Vol. 276, pp307-326) in the Collect program suite. […] Indexing and processing of the measured intensity data were carried out with the APEX2 software package/program suite (APEX2 Data collection and processing user interface: APEX2 User Manual, v1.27; BRUKER AXS, inc., Madison, WI). […]

[7] = for water uptake at 5 % RH: 25°C
Procedure: (§2) Hygroscopicity: Sorption/desorption isotherms were measured using the VT1100 humidity microbalance (VTI Corporation, Hialeah, FL, USA). Measurements were carried out at 25°C. Samples were dried under N2 flow at 25°C. […] Concentration in supernatant was measured by gravimetry for organic solvents and by HPLC from aqueous solvents and propylene glycol.

[8] = for Stability in water: 2 days at 50°C
Procedure: as §2

[9] = 1440 min
[10] = 25 RH/ 60 °C (first such line, r3), 1 week
[11] = 25 RH/ 60 °C (first such line, r3), 2 weeks
[12] = 25 RH/ 60 °C (first such line, r3), 4 weeks
[13] = 25 RH/ 60 °C (first such line, r3), Initial
[14] = 25 RH/ 60 °C (second such line, r5), 1 week
[15] = 25 RH/ 60 °C (second such line, r5), 2 weeks
[16] = 25 RH/ 60 °C (second such line, r5), 4 weeks
[17] = 25 RH/ 60 °C (third such line, r6), 1 week
[18] = 25 RH/ 60 °C (third such line, r6), 2 weeks
[19] = 25 RH/ 60 °C (third such line, r6), 4 weeks

## N[C@@H]1c2cccnc2[C@H](OC(=O)N2CCC(n3c(=O)[nH]c4ncccc43)CC2)CC[C@H]1c1cccc(F)c1F [hemisulfate salt of Compound (VI), (5S,6S,9R)-5-amino-6-(2,3-dfluorophenyl)-6,7,8,9-tetrahydro-5H-cyclohepta[b] pyridin-9-yl 4-(2-oxo-2,3-dihydro-1 H-imidazo[4,5-b]pyridin-1-yl)piperidine-1-carboxylate, hemisulfate salt]
[1]; hemisulfate salt
  bioavailability: 34.73%
[2]
  Chemical stability: chemically stable
  Physical stability: physically stable
  Hygroscopicity: low hygroscopicity
[2]; listed as Sulfuric acid
  Hygroscopicity: low/non-hygroscopic at ambient temperatures and relative humidity conditions

## N[C@@H]1c2cccnc2[C@H](OC(=O)N2CCC(n3c(=O)[nH]c4ncccc43)CC2)CC[C@H]1c1cccc(F)c1F [Example 1, (5S,6S,9R)-5-Amino-6-(2,3-difluorophenyl)-6,7,8,9-tetrahydro-5H-cyclohepta[b]pyridin-9-yl 4-(2-oxo-2,3-dihydro-1H-imidazo[4,5-b]pyridin-1-yl) piperidine-1-carboxylate, Hemisulfate Salt]
[3]; versus Form P22C
  Relative stability (water activity): more stable at > 23% relative humidity
[3]; versus Form P33
  Relative stability (water activity): more stable at > 23% relative humidity
[4]; [10]
  % pot.: 94.4%
  % total imp.: 0.27%
[4]; [11]
  % pot.: 96.8%
  % total imp.: 0.27%
[4]; [12]
  % pot.: 96.9%
  % total imp.: 0.27%
[4]; [13]
  % pot.: 98.5%
  % total imp.: 0.27%
[4]; [14]
  % pot.: 95.1%
  % total imp.: 0.27%
[4]; [15]
  % pot.: 98.5%
  % total imp.: 0.27%
[4]; [16]
  % pot.: 97.0%
  % total imp.: 0.27%
[4]; [17]
  % pot.: 101.6%
  % total imp.: 0.28%
[4]; [18]
  % pot.: 102.6%
  % total imp.: 0.27%
[4]; [19]
  % pot.: 110.0%
  % total imp.: 0.27%
[4]; HIL/UV, 1 week
  % pot.: 100.7%
  % total imp.: 0.27%
[4]; HIL/UV, 2 weeks
  % pot.: 96.9%
  % total imp.: 0.27%
[4]; Refrigerated, 1 week
  % pot.: 98.0%
  % total imp.: 0.29%
[4]; Refrigerated, 2 weeks
  % pot.: 96.5%
  % total imp.: 0.27%
[4]; Refrigerated, 4 weeks
  % pot.: 105.7%
  % total imp.: 0.27%
[4]; Refrigerated, Initial
  % pot.: 98.5%
  % total imp.: 0.27%
[4]; various temperature and relative humidity conditions, up to four weeks of storage
  Solid state stability: stable
[1]; 150 mg capsule oral, famotidine pretreatment
  BA Mean: 34.73%
[5]
  Chemical degradation in aqueous slurry: no significant chemical degradation
  PXRD pattern after aqueous slurry: no change in the PXRD pattern
[6]; between 5% and 95% relative humidity
  moisture sorption weight gain: 2.8 weight %
[6]; between 25% and 75% relative humidity
  moisture sorption weight gain: 0.8 weight %

## N[C@@H]1c2cccnc2[C@H](OC(=O)N2CCC(n3c(=O)[nH]c4ncccc43)CC2)CC[C@H]1c1cccc(F)c1F [Compound (VI), N-(5S,6S,9R)-5-amino-6-(2,3-10-difluorophenyl)-6,7,8,9-tetrahydro-5H-cyclohepta[b]pyridin-9-yl-4-(2-oxo-2,3-dihydro-1H-imidazo[4,5-b]pyridin-1-yl)piperidine-1-carboxylate]
[1]; listed as Compound (VI) free base
  bioavailability: 4.54%

## N#Cc1ccc([C@H]2CCc3cncn32)c(F)c1 [phosphate salt, 4-(R)-(6,7-dihydro-5H-pyrrolo[1,2-c]imidazol-5-yl)-3-fluoro-benzonitrile]
[7]
  water uptake at 5 % RH: 0%
[7]; r.h. 0%
  Moisture gain: 0.0%
[7]; r.h. 5%
  Moisture gain: 0.0%
[7]; r.h. 25%
  Moisture gain: 0.1%
[7]; r.h. 50%
  Moisture gain: 0.1%
[7]; r.h. 75%
  Moisture gain: 0.2%
[7]; r.h. 85%
  Moisture gain: 0.3%
[7]; r.h. 95%
  Moisture gain: 0.8%
[8]
  Stability in water: stable
[9]; pH 6.8, 25°C
  solubility: > 50 mg/mL

## N#Cc1ccc([C@H]2CCc3cncn32)c(F)c1 [nitrate salt, 4-(R)-(6,7-dihydro-5H-pyrrolo[1,2-c]imidazol-5-yl)-3-fluoro-benzonitrile]
[7]
  water uptake at 5 % RH: 0%
[7]; r.h. 0%
  Moisture gain: 0.0%
[7]; r.h. 5%
  Moisture gain: 0.0%
[7]; r.h. 25%
  Moisture gain: 0.1%
[7]; r.h. 50%
  Moisture gain: 0.2%
[7]; r.h. 75%
  Moisture gain: 0.2%
[7]; r.h. 85%
  Moisture gain: 0.2%
[7]; r.h. 95%
  Moisture gain: 0.2%
[8]
  Stability in water: stable
[8]; water
  Solubility in water at the 0.1% target concentration: soluble
[9]; pH 1, 25°C
  solubility: > 50 mg/mL
